Reference: ChEMBL document CHEMBL1152075, “Synthesis and SAR of diiodotyrosine-derived glycine-site N-methyl-D-aspartate receptor ligands” (Bioorg Med Chem Lett, 1996)

Columns and labels:
Glutamate NMDA receptor = assay: Ability to displace [3H]L-689560 from NMDA receptor glycine site in rat brain membranes; format: cell membranes
Rattus norvegicus = species: Rattus norvegicus; assay: In vitro antagonist potency was determined by blockade of NMDA- induced depolarizations on rat cortical slices; format: functional

Compound | IC50 (Glutamate NMDA receptor) [nM] | Kb (Rattus norvegicus) [nM]
N[C@H](Cc1cc(I)c(OCCc2ccccc2)c(I)c1)C(=O)O | 510 | –
N[C@H](Cc1ccc(OCCc2ccccc2)c(I)c1)C(=O)O | 7300 | –
N[C@H](Cc1cc(I)c(OCCc2ccncc2)c(I)c1)C(=O)O | 460 | 670
NC(Cc1cc(I)c(OCCc2ccc(O)cc2)c(I)c1)C(=O)O (configuration not stated) | 900 | –
N[C@H](Cc1cc(I)c(OCCc2ccc(O)cc2)c(I)c1)C(=O)O | – | 2200
CC(=O)N[C@H](Cc1cc(I)c(OCCc2ccc(O)cc2)c(I)c1)C(=O)O | > 100000 | –
N[C@H](Cc1ccc(OCCc2ccccc2)cc1)C(=O)O | 100000 | –
N[C@H](Cc1cc(I)c(O)c(I)c1)C(=O)O | 100000 | –
CCOc1c(I)cc(C[C@@H](N)C(=O)O)cc1I | 1500 | –
N[C@H](Cc1cc(I)c(OCc2ccccc2)c(I)c1)C(=O)O | 790 | –
N[C@@H](Cc1cc(I)c(OCCc2ccc(O)cc2)c(I)c1)C(=O)O | > 100000 | –
N[C@H](Cc1cc(I)c(OCCc2cccc(O)c2)c(I)c1)C(=O)O | 350 | 2500
COC(=O)[C@H](N)Cc1cc(I)c(OCCc2ccc(O)cc2)c(I)c1 | 100000 | –
N[C@H](Cc1cc(I)c(Oc2ccc(O)cc2)c(I)c1)C(=O)O | 4100 | –
N[C@H](Cc1cc(I)c(Oc2cc(I)c(O)c(I)c2)c(I)c1)C(=O)O [DEXTROTHYROXINE] | 330 | –
